Assay [1] addresses PI3-kinase p110-alpha/p85-alpha (Homo sapiens, UniProt P42336, H1047R). In words: Inhibition of recombinant full length PI3K p85alpha/p110alpha H1047R mutant (unknown origin) expressed in baculovirus infected sf9 cells using PIP2 as substrate preincubated for 10 mins followed by ATP addition and measured after 45 mins by HTRF assay. In general terms: In TR-FRET formats the signal depends on donor and acceptor labels being close together.

The target in assay [2] is PI3-kinase p110-alpha/p85-alpha (Homo sapiens, UniProt P42336). In words: Inhibition of recombinant full length PI3K p110alpha/p85alpha (unknown origin) expressed in baculovirus infected sf9 cells using PIP2 as substrate preincubated for 10 mins followed by ATP addition and measured after 45 mins by HTRF assay.
For the next assay, the system named is HCT-116. Nature of the assay: cells. Particulars: Homo sapiens, HCT-116, 72 h.
The subject of a further assay is MCF7. Nature of the assay: cells. The following applies: Homo sapiens, MCF7, 72 h.
The nature of assay [3]: Inhibition of mTORC1 (unknown origin). Details: species or system Homo sapiens.

Chain of PI3-kinase p110-alpha/p85-alpha (Homo sapiens, UniProt P42336, H1047R) (P42336 whole entry H1047R, looked up): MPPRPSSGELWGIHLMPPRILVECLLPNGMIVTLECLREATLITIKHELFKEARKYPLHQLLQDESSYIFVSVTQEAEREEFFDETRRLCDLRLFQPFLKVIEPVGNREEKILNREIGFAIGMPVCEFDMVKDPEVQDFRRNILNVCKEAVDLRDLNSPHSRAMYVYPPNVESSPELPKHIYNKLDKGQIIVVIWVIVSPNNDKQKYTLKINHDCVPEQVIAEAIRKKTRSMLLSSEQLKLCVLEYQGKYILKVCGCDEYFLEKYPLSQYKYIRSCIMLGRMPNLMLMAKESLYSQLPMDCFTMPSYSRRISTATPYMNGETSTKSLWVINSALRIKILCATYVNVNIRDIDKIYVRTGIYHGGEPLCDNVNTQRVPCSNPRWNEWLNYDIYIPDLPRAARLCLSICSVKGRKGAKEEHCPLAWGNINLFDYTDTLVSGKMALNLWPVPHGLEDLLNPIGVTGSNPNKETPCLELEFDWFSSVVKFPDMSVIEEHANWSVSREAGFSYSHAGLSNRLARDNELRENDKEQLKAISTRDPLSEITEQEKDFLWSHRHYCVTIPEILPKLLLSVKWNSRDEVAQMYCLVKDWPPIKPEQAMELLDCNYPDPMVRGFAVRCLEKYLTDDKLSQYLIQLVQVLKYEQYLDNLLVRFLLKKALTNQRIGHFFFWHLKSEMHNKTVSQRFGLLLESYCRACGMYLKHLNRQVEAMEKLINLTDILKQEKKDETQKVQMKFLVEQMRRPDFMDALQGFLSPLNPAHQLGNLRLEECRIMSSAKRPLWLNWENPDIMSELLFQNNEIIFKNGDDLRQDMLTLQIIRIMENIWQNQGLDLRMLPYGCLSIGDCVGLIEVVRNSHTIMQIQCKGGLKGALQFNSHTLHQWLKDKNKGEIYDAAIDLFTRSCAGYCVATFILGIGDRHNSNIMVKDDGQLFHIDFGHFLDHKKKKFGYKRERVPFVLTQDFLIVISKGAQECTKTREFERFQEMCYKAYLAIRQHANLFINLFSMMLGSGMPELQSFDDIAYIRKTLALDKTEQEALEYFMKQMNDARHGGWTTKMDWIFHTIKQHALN
Chain of PI3-kinase p110-alpha/p85-alpha (Homo sapiens, UniProt P42336) (P27986 whole entry): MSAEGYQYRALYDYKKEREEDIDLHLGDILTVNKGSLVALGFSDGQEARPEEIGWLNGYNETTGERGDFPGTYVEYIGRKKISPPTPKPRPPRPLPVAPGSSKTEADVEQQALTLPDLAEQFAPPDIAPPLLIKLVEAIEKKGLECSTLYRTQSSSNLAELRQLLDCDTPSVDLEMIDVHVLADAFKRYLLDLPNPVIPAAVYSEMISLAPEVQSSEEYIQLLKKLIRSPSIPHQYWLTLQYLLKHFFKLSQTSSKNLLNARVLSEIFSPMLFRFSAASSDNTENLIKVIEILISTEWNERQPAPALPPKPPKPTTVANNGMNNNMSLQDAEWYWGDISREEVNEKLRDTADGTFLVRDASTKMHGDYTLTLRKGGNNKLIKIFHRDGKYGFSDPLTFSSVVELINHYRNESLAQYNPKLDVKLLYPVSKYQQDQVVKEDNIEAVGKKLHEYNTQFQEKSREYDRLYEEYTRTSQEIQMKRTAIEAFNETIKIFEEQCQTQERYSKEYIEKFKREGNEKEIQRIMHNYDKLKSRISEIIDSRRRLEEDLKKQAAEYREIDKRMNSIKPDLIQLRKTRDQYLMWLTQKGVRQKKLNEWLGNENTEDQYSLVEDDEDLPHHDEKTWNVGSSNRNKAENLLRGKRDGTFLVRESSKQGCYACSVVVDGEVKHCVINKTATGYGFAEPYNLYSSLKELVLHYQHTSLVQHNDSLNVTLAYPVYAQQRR
Chain of PI3-kinase p110-alpha/p85-alpha (Homo sapiens, UniProt P42336) (P42336 whole entry): as the sequence (P42336 whole entry H1047R, looked up) above, with R1047H counted along it
Description for MCF7: Antiproliferative activity against human MCF7 cells after 72 hrs by CCK8 assay

Usually EC50 stands for the concentration that produces a half-maximal response. For orientation: IC50 means the concentration needed to halve the response being measured. High values mean lower potency, low ones higher potency. As to `c1ccc(-c2ccc3nc(-c4ccco4)c(-c4ccco4)nc3c2)cc1`, the figures for the EC50 in assay [1] and in assay [2] were 47.8 µM and 12.4 µM, respectively. The IC50 in the assay with HCT-116 and in the assay with MCF7 was above 50 µM throughout.

For `COc1ccc(-c2cc3nc(-c4ccco4)c(-c4ccco4)nc3cc2Br)cc1`, the EC50 in assay [1] is above 100 µM. Also, the half-maximal inhibitory concentration (IC50) in the assay with HCT-116 and in the assay with MCF7 was above 50 µM in each case.

Take `c1ccc(-c2nc3ccccc3nc2-c2ccccc2)cc1`: the EC50 in assay [1] was above 100 µM. In addition, the IC50 in the assay on HCT-116 and in the assay with MCF7 was above 50 µM each time.

`c1coc(-c2nc3ccc(-c4cc5ccccc5o4)cc3nc2-c2ccco2)c1`: in assay [1], the EC50 was above 100 µM. Besides, the IC50 in the assay on HCT-116 and in the assay with MCF7 was above 50 µM throughout.

As for `c1ccc2nc(N3CCOCC3)c(N3CCOCC3)nc2c1`, the concentration giving a half-maximal response (EC50) in assay [1] was above 100 µM. For the same compound, the IC50 in the assay with HCT-116 and with MCF7 was above 50 µM in each case.

`Oc1ccccc1-c1ccc2nc(-c3ccco3)c(-c3ccco3)nc2c1`: the 50% effective concentration (EC50) in assay [1] amounted to 43.5 µM. Besides, the IC50 with HCT-116 and in the assay on MCF7 was above 50 µM throughout.

Consider `Cc1ccc2nc(-c3ccco3)c(-c3ccco3)nc2c1`, for which, in assay [1], the EC50 is above 100 µM. For the same compound, the IC50 in the assay on HCT-116 and in the assay with MCF7 was above 50 µM throughout.

Regarding `FC(F)(F)c1ccc2nc(-c3ccco3)c(-c3ccco3)nc2c1`, in assay [1], the EC50 was above 100 µM. In addition, the IC50 in the assay on HCT-116 and in the assay on MCF7 was above 50 µM throughout.

For the compound `Brc1cc2nc(-c3ccco3)c(-c3ccco3)nc2cc1-c1cc2ccccc2s1`, the EC50 in assay [1] was 1.2 µM. For the same compound, the IC50 with HCT-116 is 38.5 µM; with MCF7 it was 40.9 µM.

Take `Fc1ccc(-c2cc3nc(-c4ccco4)c(-c4ccco4)nc3cc2Br)c(F)c1`: the EC50 in assay [1] stood at 3.2 µM. The IC50 in the assay on HCT-116 was determined as 16.6 µM; in the assay with MCF7, 27.9 µM.

For `Fc1ccc(-c2cc3nc(-c4ccco4)c(-c4ccco4)nc3cc2Br)cc1`, the EC50 in assay [1] is 1.9 µM. Also, the IC50 with HCT-116 amounted to 38.1 µM; with MCF7, 35.1 µM.

For `Fc1ccccc1-c1ccc2nc(-c3ccco3)c(-c3ccco3)nc2c1`, the EC50 in assay [1] was 12.7 µM. Further, the IC50 in the assay with HCT-116 was 39.7 µM; in the assay with MCF7, above 50 µM.

As for `Fc1cccc(-c2cc3nc(-c4ccco4)c(-c4ccco4)nc3cc2Br)c1`, the half-maximal effective concentration (EC50) in assay [1] turned out to be 2.9 µM. Further, the IC50 in the assay on HCT-116 was determined as 43.1 µM; with MCF7, 19.6 µM.

On to `CC(C)(C)OC(=O)n1cccc1-c1cc2nc(-c3ccco3)c(-c3ccco3)nc2cc1Br`, for which the EC50 in assay [1] turned out to be 18.6 µM. Further, the IC50 in the assay on HCT-116 and in the assay on MCF7 was above 50 µM throughout.

Turning to `Brc1cc2nc(-c3ccco3)c(-c3ccco3)nc2cc1-c1ccncc1`, the EC50 in assay [1] came out at 10.8 µM. Moreover, the values for the IC50 with HCT-116 and with MCF7 were 45.7 µM and above 50 µM, respectively.

Consider `Fc1ccc2nc(-c3ccco3)c(-c3ccco3)nc2c1`, for which, in assay [1], the EC50 was above 100 µM. For the same compound, the IC50 with HCT-116 and in the assay on MCF7 was above 50 µM in each case.

As for `Brc1ccc2nc(-c3ccco3)c(-c3ccco3)nc2c1`, the EC50 in assay [1] turned out to be 33.5 µM; in assay [2], 27.6 µM. For the same compound, the half-inhibitory concentration (IC50) in the assay on HCT-116 and in the assay on MCF7 was above 50 µM each time.

In assay [3], `Cn1c(=O)n(-c2ccc(C(C)(C)C#N)cc2)c2c3cc(-c4cnc5ccccc5c4)ccc3ncc21` [DACTOLISIB] gave an EC50 of 0.079 µM.

On to `Clc1cc(Cl)c2nc(-c3ccco3)c(-c3ccco3)nc2c1`, for which the EC50 was 76 µM in assay [1] and 54.6 µM in assay [2]. Further, the IC50 with HCT-116 and in the assay on MCF7 was above 50 µM in each case.

Take `FC(F)(F)c1ccccc1-c1ccc2nc(-c3ccco3)c(-c3ccco3)nc2c1`: the EC50 in assay [1] stood at 11.8 µM; in assay [2], 12.8 µM. Besides, the IC50 in the assay with HCT-116 was 45.3 µM; in the assay with MCF7, above 50 µM.

Consider `Brc1ccccc1-c1cc2nc(-c3ccco3)c(-c3ccco3)nc2cc1Br`, for which the EC50 in assay [1] was above 100 µM. The IC50 in the assay on HCT-116 and in the assay on MCF7 was above 50 µM throughout.

For the compound `Clc1ccccc1-c1cc2nc(-c3ccco3)c(-c3ccco3)nc2cc1Br`, the EC50 in assay [1] was above 100 µM. Besides, the IC50 in the assay on HCT-116 and with MCF7 was above 50 µM throughout.

In the case of `FC(F)(F)c1ccccc1-c1cc2nc(-c3ccco3)c(-c3ccco3)nc2cc1Br`, the EC50 in assay [1] is 0.169 µM; in assay [2] it was 0.097 µM. Moreover, the values for the IC50 in the assay on HCT-116 and in the assay on MCF7 were 13.5 µM and 15.5 µM, respectively.

In the case of `COc1ccccc1-c1ccc2nc(-c3ccco3)c(-c3ccco3)nc2c1`, the EC50 in assay [1] stood at 87.3 µM. For the same compound, the IC50 in the assay with HCT-116 and in the assay on MCF7 was above 50 µM each time.

Consider `Oc1ccccc1-c1cc2nc(-c3ccco3)c(-c3ccco3)nc2cc1Br`, for which, in assay [1], the EC50 was above 100 µM. Moreover, the IC50 with HCT-116 and in the assay on MCF7 was above 50 µM throughout.

Turning to `c1coc(-c2nc3ccc(-c4cc5ccccc5s4)cc3nc2-c2ccco2)c1`, in assay [1], the concentration giving a half-maximal response (EC50) is above 100 µM. Besides, the IC50 in the assay with HCT-116 and in the assay on MCF7 was above 50 µM in each case.

For the compound `Brc1cc2nc(-c3ccco3)c(-c3ccco3)nc2cc1-c1ccccc1`, the EC50 in assay [1] was 20.5 µM. Also, the IC50 in the assay with HCT-116 and with MCF7 was above 50 µM each time.

`Clc1ccc2nc(-c3ccco3)c(-c3ccco3)nc2c1Cl`: in assay [1], the EC50 was above 100 µM. The IC50 with HCT-116 and in the assay with MCF7 was above 50 µM in each case.

As for `Brc1cc2nc(-c3ccco3)c(-c3ccco3)nc2cc1-c1cncnc1`, the EC50 in assay [1] was determined as 13.5 µM. Besides, the half-inhibitory concentration (IC50) in the assay on HCT-116 and in the assay on MCF7 was above 50 µM in each case.

On to `COc1ccccc1-c1cc2nc(-c3ccco3)c(-c3ccco3)nc2cc1Br`, for which the EC50 in assay [1] is above 100 µM. For the same compound, the IC50 in the assay on HCT-116 and in the assay with MCF7 was above 50 µM in each case.

For `Fc1cccc(-c2cc3nc(-c4ccco4)c(-c4ccco4)nc3cc2Br)c1F`, the EC50 in assay [1] amounted to 7.3 µM. The IC50 in the assay with HCT-116 and with MCF7 was above 50 µM in each case.

Turning to `c1coc(-c2nc3ccc(-c4ccncc4)cc3nc2-c2ccco2)c1`, in assay [1], the EC50 is above 100 µM. Further, the IC50 with HCT-116 and in the assay with MCF7 was above 50 µM in each case.

On to `COc1cc(OC)cc(-c2cc3nc(-c4ccco4)c(-c4ccco4)nc3cc2Br)c1`, for which the EC50 in assay [1] is above 100 µM. Besides, the concentration for half-maximal inhibition (IC50) in the assay on HCT-116 and in the assay on MCF7 was above 50 µM throughout.

With `c1csc(-c2nc3ccccc3nc2-c2cccs2)c1`, the EC50 in assay [1] is above 100 µM. The IC50 in the assay with HCT-116 and with MCF7 was above 50 µM throughout.

Turning to `Brc1cc2nc(-c3ccco3)c(-c3ccco3)nc2cc1-c1cc2ccccc2o1`, in assay [1], the EC50 is above 100 µM. The IC50 in the assay with HCT-116 and in the assay with MCF7 was above 50 µM throughout.

With `FC(F)(F)c1ccc(-c2cc3nc(-c4ccco4)c(-c4ccco4)nc3cc2Br)cc1`, the EC50 in assay [1] was found to be 0.516 µM. Also, the IC50 in the assay on HCT-116 amounted to 14.9 µM; with MCF7, 25.2 µM.

Regarding `Brc1cc2nc(-c3ccco3)c(-c3ccco3)nc2cc1Br`, the EC50 in assay [1] amounted to 39.3 µM. In addition, the IC50 in the assay on HCT-116 and in the assay on MCF7 was above 50 µM in each case.

As for `Clc1ccc2nc(-c3ccco3)c(-c3ccco3)nc2c1`, in assay [1], the EC50 was 18.1 µM. Also, the concentration for half-maximal inhibition (IC50) with HCT-116 and with MCF7 was above 50 µM each time.

Values taken from ChEMBL document CHEMBL4270587, “Difuran-substituted quinoxalines as a novel class of PI3Kα H1047R mutant inhibitors: Synthesis, biological evaluation and structure-activity relationship” (Eur J Med Chem, 2018).
